Experimental data reported in US20260166057A1, “1,3,5(10),16-ESTRATETRAEN-3-YL ACETATE FOR USE IN IMPROVING PSYCHOMOTOR OR COGNITIVE PERFORMANCE” (priority 2023, published 2026).
Like-named read-outs stand apart in the source and are kept apart here.

Tests used:
mice = settings: forced swim test in mice; imipramine, desipramine, fluoxetine, paroxetine, escitalopram, reboxetine; cited from earlier work
healthy male volunteers [1] = test: Time Estimation Test (cognitive performance) of the RTTET in mentally fatigued men; settings: for Time Estimation test improvement: relative to placebo
[2] = at night during extended wakefulness; cited from earlier work
healthy male volunteers [3] = test: Reaction Time Test (psychomotor performance) of the RTTET in mentally fatigued men; type: in vivo, human; settings: for number of errors: relative to placebo, all three non-control tests; for variability in Reaction Time test: compared to caffeine and placebo; for effect on Reaction Time test compared with caffeine: midnight and 3 a.m. tests (subjects fatigued)
depressed patients = settings: cited from earlier work
US adults = settings: caffeine intake; cited from earlier work
healthy male volunteers [4] = test: Adverse events in the efficacy study in mentally fatigued men; settings: ETA nasal spray 1600 ng per administration, all subjects
bone marrow = test: In vivo bone marrow micronucleus test
[5] = system: subjects with shift work sleep disorder; test: ETA in mental fatigue associated with shift work sleep disorder (Example 5); type: in vivo, human; settings: intranasal as in Example 4
From the text: (§1) In subjects experiencing decreased psychomotor and/or cognitive performance in mental fatigue associated with shift work sleep disorder, a therapeutically effective amount of ETA is intranasally administered as described in Example 4. Psychomotor and cognitive performance improve in this group of subjects.

[6] = system: subjects with major depressive disorder; test: Supplemental ETA with itruvone antidepressant therapy (Example 9); type: in vivo, human; settings: ETA added to itruvone
From the text: Itruvone (INN, pregn-4-en-20-yn-3-one) is being developed for the treatment of MDD and is an investigational product not approved by the Food and Drug Administration. The preparation and experimental treatment of MDD with this compound are described, for example, in Monti, U.S. patent Ser. No. 10/322,138, “Treatment of Depressive Disorders,”. Both itruvone and ETA are believed to have a common mechanism of action in terms of activating olfactory chemosensory neurons in the nasal mucosa, and then activating certain hypothalamic circuits in the brain without brain or systemic uptake. In subjects receiving itruvone treatment for major depressive disorder, ETA is administered to the olfactory epithelium as described in Example 4. […] Cognitive function and psychomotor performance improve in this group of subjects. Because itruvone also is administered to the olfactory epithelium in the form of a spray or aerosol, ETA and itruvone may be administered separately, but proximate in time, or co-formulated for simultaneous intranasal administration.

rat androgen receptor = rat androgen receptor (Rattus norvegicus, UniProt P15207); test: In vitro agonist/antagonist activity on steroid receptors; type: biochemical
rat estrogen receptor = test: as above; type: biochemical
male rats = test: Intravenous and intranasal administration to male rats; type: in vivo; settings: 600 μg/Kg intravenous, 900 μg/Kg intranasal, 7-day period
subjects with MDD = test: ETA supplementation in MDD subjects already receiving escitalopram (Example 8); type: in vivo, human; settings: ETA added to escitalopram
Description: In subjects experiencing decreased psychomotor and/or cognitive performance in mental fatigue associated with MDD and already receiving treatment with escitalopram, a therapeutically effective amount of ETA is intranasally administered as described in Example 4 as a supplemental or adjunctive treatment. ETA is administered separately from the antidepressant treatment and is given sequentially or proximate in time to situations requiring attention and concentration. […] Psychomotor and cognitive performance improve in this group of subjects.

[7] = Ames reverse mutation assay; type: cell-based
rat progestin receptor = rat progestin receptor (Rattus norvegicus, UniProt Q63449); test: In vitro agonist/antagonist activity on steroid receptors; type: biochemical
[8] = system: subjects with MDD or peripartum depression; test: ETA in mental fatigue associated with a depressive disorder (Example 7); type: in vivo, human; settings: nasal as in Example 4
From the text: as §1, with “a depressive disorder such as MDD or peripartum depression,” for “shift work sleep disorder,”, “nasally” for “intranasally”, “administered to the olfactory epithelium” for “administered”

[9] = system: subjects with excessive daytime sleepiness; test: ETA in mental fatigue associated with excessive daytime sleepiness (Example 6); type: in vivo, human; settings: intranasal as in Example 4
From the text: as §1, with “excessive daytime sleepiness,” for “shift work sleep disorder,”

[10] = system: isolated human nasal olfactory chemosensory neurons; test: Electrophysiology: inward currents in isolated chemosensory neurons; type: cell-based
[11] = system: nasal septal olfactory chemosensory epithelium; test: Electrophysiology: depolarization of chemosensory epithelium; set-up: species or system human
vomeronasal organ = settings: cited from earlier work
rats of both sexes = test: 7-day intravenous administration to rats of both sexes; type: in vivo
[12] = Onset of effect after nasal administration; type: in vivo, human
From the text: Because of the rapid onset of effect of nasally administered ETA, and its safety, it is expected that ETA may be administered as needed once mental fatigue is sensed, for example immediately a mentally fatigued person senses sleepiness or a symptom of sleepiness (such as excessive yawning, closing the eyes, nodding of the head, etc.) or a decline in psychomotor or cognitive performance, to improve psychomotor and cognitive performance under those circumstances. It is also expected that ETA may be administered prophylactically to improve, or at least prevent the normal decline in, psychomotor and/or cognitive performance in persons who are, or are likely to become, mentally fatigued. Thus, for example, a firefighter, whose work schedule may require him or her to be available continuously for 72 hours even though he/she is allowed to sleep at night when not actually needed, might administer ETA to improve psychomotor and/or cognitive performance when awakened at night and called to fight a fire; or a pilot of an overnight flight, who flies the aircraft during an afternoon takeoff, rests during the overnight cruise portion of the flight, but then flies the aircraft again as it approaches and lands the next morning, might administer ETA to improve psychomotor and/or cognitive performance on rising from rest to perform the approach and landing.

[13] = system: subjects with mild cognitive impairment; test: ETA in mild cognitive impairment (Example 12); type: in vivo, human; settings: intranasal as in Example 4
Description: In subjects experiencing decreased psychomotor and/or cognitive performance associated with mild cognitive impairment, a therapeutically effective amount of ETA is administered intranasally as described in Example 4. Psychomotor and cognitive performance improve in this group of subjects.

subjects with ADHD = test: ETA in ADHD (Example 11); type: in vivo, human; settings: intranasal as in Example 4
Description: In subjects experiencing decreased psychomotor and/or cognitive performance associated with ADHD, a therapeutically effective amount of ETA is administered intranasally as described in Example 4. Psychomotor and cognitive performance improve in this group of subjects.

healthy male volunteers [14] = settings: in vivo
[15] = system: subjects with peripartum depression; test: ETA in peripartum depression (Example 10); type: in vivo, human; settings: as in Example 4
Description: In subjects experiencing decreased psychomotor and/or cognitive performance associated with peripartum depression, a therapeutically effective amount of ETA is administered to the olfactory epithelium as described in Example 4. ETA is administered separately from any other antidepressant therapy and is given sequentially or proximate in time to such other medications. Depressive scores reduce when the subjects are evaluated. Psychomotor and cognitive performance improve in this group of subjects.

[16] = molecular target: rat glucocorticoid receptor (Rattus norvegicus, UniProt P06536); test: In vitro agonist/antagonist activity on steroid receptors; type: biochemical
[17] = system: healthy volunteers of both sexes; test: Pilot human trials, nasal administration
[18] = at certain dosages; cited from earlier work
[19] = adjunctive therapy for acute depressive episodes, unipolar and bipolar; cited from earlier work
[20] = both men and women, more pronounced in men

Sequence of rat progestin receptor (Q63449 whole entry): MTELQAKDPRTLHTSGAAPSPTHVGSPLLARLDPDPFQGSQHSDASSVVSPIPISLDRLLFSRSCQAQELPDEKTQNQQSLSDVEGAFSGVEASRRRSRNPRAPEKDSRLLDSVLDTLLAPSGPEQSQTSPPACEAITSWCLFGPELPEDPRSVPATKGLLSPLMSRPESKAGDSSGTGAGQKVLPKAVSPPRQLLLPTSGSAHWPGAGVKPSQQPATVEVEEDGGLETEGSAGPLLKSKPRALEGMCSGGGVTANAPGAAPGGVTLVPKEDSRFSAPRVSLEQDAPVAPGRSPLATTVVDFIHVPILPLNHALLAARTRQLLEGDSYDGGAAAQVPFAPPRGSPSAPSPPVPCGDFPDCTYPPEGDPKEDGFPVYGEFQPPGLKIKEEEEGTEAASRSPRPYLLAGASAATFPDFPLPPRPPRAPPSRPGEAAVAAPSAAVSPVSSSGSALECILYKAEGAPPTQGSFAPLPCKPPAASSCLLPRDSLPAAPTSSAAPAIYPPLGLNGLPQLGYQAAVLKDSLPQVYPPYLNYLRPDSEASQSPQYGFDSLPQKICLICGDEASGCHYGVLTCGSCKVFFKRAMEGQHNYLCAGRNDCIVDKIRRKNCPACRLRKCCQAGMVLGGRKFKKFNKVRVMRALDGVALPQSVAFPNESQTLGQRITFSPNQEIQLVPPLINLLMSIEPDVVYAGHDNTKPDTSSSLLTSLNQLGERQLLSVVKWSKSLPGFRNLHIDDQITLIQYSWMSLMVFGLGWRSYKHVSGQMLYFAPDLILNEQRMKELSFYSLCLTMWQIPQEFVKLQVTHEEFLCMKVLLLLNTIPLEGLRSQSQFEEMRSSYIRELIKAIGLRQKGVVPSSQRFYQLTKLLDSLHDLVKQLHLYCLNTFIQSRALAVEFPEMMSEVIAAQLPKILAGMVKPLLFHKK
Sequence of rat androgen receptor (P15207 whole entry S389L): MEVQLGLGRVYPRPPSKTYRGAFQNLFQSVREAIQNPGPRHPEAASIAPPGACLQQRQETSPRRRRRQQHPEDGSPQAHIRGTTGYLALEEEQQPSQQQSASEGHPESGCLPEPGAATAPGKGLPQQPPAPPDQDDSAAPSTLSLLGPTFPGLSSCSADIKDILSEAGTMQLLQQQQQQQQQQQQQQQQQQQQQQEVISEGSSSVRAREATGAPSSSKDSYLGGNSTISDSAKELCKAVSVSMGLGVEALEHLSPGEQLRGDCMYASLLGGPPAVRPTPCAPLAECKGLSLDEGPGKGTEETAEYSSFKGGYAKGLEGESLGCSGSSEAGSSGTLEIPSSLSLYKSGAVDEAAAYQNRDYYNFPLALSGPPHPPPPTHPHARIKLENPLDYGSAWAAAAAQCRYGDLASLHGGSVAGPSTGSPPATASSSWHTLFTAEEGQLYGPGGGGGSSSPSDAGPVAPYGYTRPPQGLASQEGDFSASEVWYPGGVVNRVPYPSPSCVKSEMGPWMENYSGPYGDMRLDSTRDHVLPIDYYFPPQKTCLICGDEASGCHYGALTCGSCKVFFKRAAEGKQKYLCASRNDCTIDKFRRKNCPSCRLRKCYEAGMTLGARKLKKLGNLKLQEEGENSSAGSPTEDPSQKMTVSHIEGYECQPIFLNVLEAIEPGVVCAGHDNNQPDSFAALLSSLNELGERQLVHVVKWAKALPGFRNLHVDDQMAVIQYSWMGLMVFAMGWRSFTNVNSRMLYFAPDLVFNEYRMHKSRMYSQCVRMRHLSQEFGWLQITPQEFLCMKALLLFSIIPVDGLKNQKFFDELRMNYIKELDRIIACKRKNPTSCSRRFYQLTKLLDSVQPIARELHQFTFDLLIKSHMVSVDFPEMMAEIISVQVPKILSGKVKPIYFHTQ
Sequence of rat glucocorticoid receptor (P06536 whole entry): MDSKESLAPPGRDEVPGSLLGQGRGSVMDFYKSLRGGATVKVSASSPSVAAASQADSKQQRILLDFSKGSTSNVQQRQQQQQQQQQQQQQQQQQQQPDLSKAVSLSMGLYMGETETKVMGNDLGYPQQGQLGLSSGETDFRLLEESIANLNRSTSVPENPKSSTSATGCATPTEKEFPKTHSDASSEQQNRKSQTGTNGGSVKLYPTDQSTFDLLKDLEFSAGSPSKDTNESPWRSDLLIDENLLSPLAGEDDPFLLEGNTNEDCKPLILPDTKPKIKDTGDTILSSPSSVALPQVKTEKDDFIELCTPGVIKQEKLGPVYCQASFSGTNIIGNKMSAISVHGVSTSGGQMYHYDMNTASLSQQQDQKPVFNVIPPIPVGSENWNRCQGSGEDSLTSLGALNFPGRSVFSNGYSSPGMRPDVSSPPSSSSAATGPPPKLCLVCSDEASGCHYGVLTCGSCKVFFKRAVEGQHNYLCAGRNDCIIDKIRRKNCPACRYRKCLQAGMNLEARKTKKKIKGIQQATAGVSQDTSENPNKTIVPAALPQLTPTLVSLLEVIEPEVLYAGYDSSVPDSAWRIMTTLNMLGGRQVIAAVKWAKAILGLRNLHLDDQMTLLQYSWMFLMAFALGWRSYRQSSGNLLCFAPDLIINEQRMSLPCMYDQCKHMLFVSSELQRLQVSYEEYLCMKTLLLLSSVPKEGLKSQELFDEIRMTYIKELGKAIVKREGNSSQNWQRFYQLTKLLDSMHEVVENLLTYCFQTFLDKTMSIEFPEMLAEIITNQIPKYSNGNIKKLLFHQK

In the case of `Cn1c(=O)c2c(ncn2C)n(C)c1=O` [caffeine], the “antidepressant-like activity of six typical antidepressants” value (mice) is listed as “enhancement”, the “Time Estimation test improvement” value (healthy male volunteers [1]; midnight test) is listed as “statistically significant” and the “reaction time and cognitive performance” value [2] is listed as “improved”. For the same compound, the number of errors (healthy male volunteers [3]; isochronous stimuli) was “significantly decrease”, the number of errors (healthy male volunteers [3]; stochastic stimuli) was “significantly decrease” and the “depressive scores (antidepressant action)” value (depressed patients; chronic supplementation, 60 mg, subjects taking escitalopram) was “produced rapid antidepressant action by reduction of depressive scores”. For the same compound, the cognitive performance (depressed patients; low doses, depressed patients) was “improved” and the “depression symptoms measured by the PHQ-9 test” value (US adults) was “reduces depression symptoms”.
In the case of `CC(=O)Oc1ccc2c(c1)CC[C@@H]1[C@@H]2CC[C@]2(C)C=CC[C@@H]12` [ETA, 1,3,5(10),16-Estratetraen-3-yl acetate], the tolerability (healthy male volunteers [4]) is reported as “well tolerated”, the “genotoxicity: mutagenic or clastogenic potential” value (bone marrow) is reported as “no evidence of mutagenic or clastogenic potential” and the “psychomotor and cognitive performance” value [5] is reported as “improve”. For the same compound, the “cognitive function and psychomotor performance” value [6] was “improve”, the depressive scores [6] was “reduce beyond that of itruvone alone” and the “agonist or antagonist activity” value (rat androgen receptor) was “no agonist or antagonist activity”. The “agonist or antagonist activity” value (rat estrogen receptor) was “no agonist or antagonist activity”, the “mortality, adverse symptoms, changes in behavior” value (male rats) was “no mortality or adverse symptoms, or changes in behavior” and the depressive scores (subjects with MDD) was “reduce beyond that of the escitalopram alone”. For the same compound, the “psychomotor and cognitive performance” value (subjects with MDD) was “improve”, the “Time Estimation test improvement” value (healthy male volunteers [1]; 3 a.m. test) was “significantly improved” and the “Time Estimation test improvement relative to caffeine” value (healthy male volunteers [1]; midnight and 3 a.m. tests, p<0.01) was “significantly improved”. For the same compound, the “Time Estimation test improvement” value (healthy male volunteers [1]; midnight test) was “significantly improved”, the “genotoxicity: mutagenic or clastogenic potential” value [7] was “no evidence of mutagenic or clastogenic potential” and the “agonist or antagonist activity” value (rat progestin receptor) was “no agonist or antagonist activity”. The “psychomotor and cognitive performance” value [8] was “improve”, the “psychomotor and cognitive performance” value [9] was “improve” and the “amplitude of the response” value ([10]; dependence on concentration) was “increased depending on the concentration of the compound”. The “inward currents in the membrane” value ([10]; isolated human neurons) was “induced inward currents”, the electrotonic depolarization [11] was “electrotonic depolarization” and the “change in mass receptor potential (electrovomerogram)” value (vomeronasal organ; 60 pg dose to the vomeronasal organ, vs control (propylene glycol), men vs women) was “higher amplitude in men”. The skin temperature (vomeronasal organ; both men and women, more pronounced in men (FIGS. 6G and 6H)) was “increase”, the electrovomerogram (vomeronasal organ; [20]) was “increase” and the α-cortical activity (vomeronasal organ; [20]) was “increase”. For the same compound, the skin temperature (vomeronasal organ; men, vs control (FIG. 4C)) was “increase”, the integrated electrovomerogram (vomeronasal organ; men, vs control) was “increase” and the skin resistance (vomeronasal organ; men, vs control) was “decrease”. The electrodermal activity (vomeronasal organ; men) was “decrease”, the “mortality, adverse symptoms, changes in behavior” value (rats of both sexes; 1 mg/day intravenously, rats of both sexes, 7-day period) was “no mortality or adverse symptoms, or changes in behavior” and the “macroscopic or microscopic changes in organs” value (rats of both sexes; rat, in vivo, iv) was “no macroscopic or microscopic changes”. The “time to improvement in psychomotor and cognitive performance” value [12] was no more than 15 min, the “time to initial physiological response” value [12] was “within a minute” and the “psychomotor and cognitive performance” value [13] was “improve”. For the same compound, the “psychomotor and cognitive performance” value (subjects with ADHD) was “improve”, the number of errors (healthy male volunteers [3]; isochronous stimuli) was “significantly decrease” and the “variability in Reaction Time test” value (healthy male volunteers [3]; isochronous) was “less variability”. The “effect on Reaction Time test compared with caffeine” value (healthy male volunteers [3]; isochronous, p<0.001) was “significantly better than the effect of caffeine”, the number of errors (healthy male volunteers [3]; stochastic stimuli) was “significantly decrease” and the “variability in Reaction Time test” value (healthy male volunteers [3]; stochastic) was “less variability”. For the same compound, the “effect on Reaction Time test compared with caffeine” value (healthy male volunteers [3]; stochastic, p<0.0001) was “significantly better than the effect of caffeine”, the serious adverse events (healthy male volunteers [14]) was “no serious adverse events” and the depressive scores [15] was “reduce”. The “psychomotor and cognitive performance” value [15] was “improve”, the “agonist or antagonist activity” value [16] was “no agonist or antagonist activity” and the “alpha frequency band of the electroencephalogram” value ([17]; intranasal administration) was “did not have significant effect”. The “beta frequency band of the electroencephalogram” value ([17]; intranasal administration) was “did not have significant effect”, the body temperature ([17]; intranasal administration) was “did not have significant effect” and the “duration of the QTc intervals of the electrocardiogram” value ([17]; intranasal administration) was “did not change”. For the same compound, the “frequency of electrodermal activity events (skin conductance)” value ([17]; intranasal administration) was “significantly increased” and the tolerability ([17]; nasal administration, healthy volunteers) was “well tolerated”.
For `NC(=O)C[S+]([O-])C(c1ccccc1)c1ccccc1` (stereo not shown) [modafinil], the ADHD symptoms [18] is listed as “significantly improved”, the attention [18] is listed as “significantly improved” and the “overall depression scores, remission rates and fatigue” value [19] is listed as “improves”.
